# Where “and” joins values, the source holds several entries; their conditions need not be identical. Identical values can stand only once.
# Key:
# [1] = test system: LPS-activated peritoneal macrophages; experiment: LDH release from LPS-activated macrophage cultures; format: cell-based, mouse; settings: 30 min
# Description: FIG. 6B is a graphic representation showing the percentage of lactate dehydrogenase (LDH) released from the total culture associated LDH in the samples described in FIG. 6A;
# Macrophages from wild type and P2×7^−/− animals (1×10^6 cells seeded per well of 6-well cluster plates) were stimulated with 1 μg/ml E. coli LPS (Serotype 055 B5 obtained from Sigma; St. Louis, Mo.) for 75-90 minutes and then rinsed with 2 ml of methionine-free RPMI medium containing 100 units/mi penicillin, 100 μg/ml streptomycin, 1% dialyzed FBS, 1 μg/ml LPS, and 25 mM Hepes, pH 7.3 (Pulse Medium). One ml of Pulse Medium containing 83 μCi/Ml of ^35S-methionine (Amersham Corp, Chicago, Ill.) then was added to each well, and the cells were labeled at 37° C. for 1 hour. These labeled cells subsequently were rinsed twice with RPMI 1640 medium containing 100 units/mil penicillin, 100 μg/ml streptomycin, 1% FBS, 2 mM glutamine, 1 μg/ml LPS and 25 mM Hepes, pH 7.3 (Chase Medium). One ml of Chase Medium (containing no effector (control) or containing 05 mM ATP, or 20 mM nigericin) was then added to each well, and the cells were chased at 37° C. for 30 minutes. Media were harvested and clarified by centrifugation (6000×g for 5 minutes) to remove cells and/or cell debris. Cell monolayers were suspended in 1 ml of a lysis buffer composed of 1% Triton X-100, 150 mM NaCl, 25 mM Hepes, pH 7, 0.1 mM PMSF, 1 mg/ml ovalbumin, 1 mM iodoacetic acid, 1 μg/ml pepstatin, and 1 μg/ml leupeptin. Clarified media samples were adjusted to the same final Triton X-100 and protease inhibitor concentrations by addition of aliquots from concentrated stocks of these reagents. […] Immnunoprecipitates were fractionated by SDS gel electrophoresis, the quantity of radioactivity associated with individual IL-1β polypeptide species was determined by scanning dried gels with a Phosphoimager.
# [2] = test system: LPS-activated peritoneal macrophages; experiment: Stimulus-induced IL-1β posttranslational processing in vitro; format: cell-based, mouse; settings: 35S-methionine-labeled, 30 min, 5 mM ATP or 20 μM nigericin
# Description: Macrophages from wild type and P2×7^−/− animals (1×10^6 cells seeded per well of 6-well cluster plates) were stimulated with 1 μg/ml E. coli LPS (Serotype 055 B5 obtained from Sigma; St. Louis, Mo.) for 75-90 minutes and then rinsed with 2 ml of methionine-free RPMI medium containing 100 units/mi penicillin, 100 μg/ml streptomycin, 1% dialyzed FBS, 1 μg/ml LPS, and 25 mM Hepes, pH 7.3 (Pulse Medium). One ml of Pulse Medium containing 83 μCi/Ml of ^35S-methionine (Amersham Corp, Chicago, Ill.) then was added to each well, and the cells were labeled at 37° C. for 1 hour. These labeled cells subsequently were rinsed twice with RPMI 1640 medium containing 100 units/mil penicillin, 100 μg/ml streptomycin, 1% FBS, 2 mM glutamine, 1 μg/ml LPS and 25 mM Hepes, pH 7.3 (Chase Medium). One ml of Chase Medium (containing no effector (control) or containing 05 mM ATP, or 20 mM nigericin) was then added to each well, and the cells were chased at 37° C. for 30 minutes. Media were harvested and clarified by centrifugation (6000×g for 5 minutes) to remove cells and/or cell debris. Cell monolayers were suspended in 1 ml of a lysis buffer composed of 1% Triton X-100, 150 mM NaCl, 25 mM Hepes, pH 7, 0.1 mM PMSF, 1 mg/ml ovalbumin, 1 mM iodoacetic acid, 1 μg/ml pepstatin, and 1 μg/ml leupeptin. Clarified media samples were adjusted to the same final Triton X-100 and protease inhibitor concentrations by addition of aliquots from concentrated stocks of these reagents. After a 30 minute incubation on ice, all samples were clarified by centrifugation at 45,000 rpm for 30 minutes in a TLA-45 rotor (Beckman, Palo Alto, Calif.), the resulting supernatants were recovered, and IL-1β was immunoprecipitated from these samples using a goat anti-murine IL-1β serum obtained from Dr. Ivan Otterness (Pfizer Central Research, Groton, Conn.). Immnunoprecipitates were fractionated by SDS gel electrophoresis, the quantity of radioactivity associated with individual IL-1β polypeptide species was determined by scanning dried gels with a Phosphoimager.
# other P2× receptors = settings: cited from earlier work
# P2×7R = settings: cited from earlier work
# [3] = test system: mouse peritoneal macrophages; experiment: YoPro Yellow uptake by peritoneal macrophages; format: cell-based; settings: 5 mM ATP
# Description: Peritoneal macrophages were washed with Isotonic Medium (15 mM Hepes, pH 7.2, 135 mM NaCl, 5 mM KCl, […], […]) by centrifugation and the resulting cell pellet was suspended in Isotonic Medium to achieve a final cell concentration of 1×10^6 cells/ml. Fifty μl of this cell suspension then was placed into wells of a Microfluor “B” U-bottom plate (Dynatech, Chantilly, Va.), and 50 μl of 2 μM YoPro Yellow (Molecular Probes, Eugene, Ore.); the fluorescent dye was dissolved in Isotonic Medium. Wells were then adjusted to 5 mM ATP or 0.0075% saponin by addition of concentrated stock solutions of these agents. Fluorescence was monitored as a function of time at 37° C., excitation, 450 nm/emission, 530 nm.
# IL-6 = experiment: ATP-induced IL-6 release in LPS-primed mice (peritoneal lavage ELISA); format: in vivo, mouse; settings: for IL-6 (ng/ml), ATP Challenge, P2×7R-/-: LPS-primed P2×7R-/- mice; for IL-6 (ng/ml), ATP Challenge, P2×7R-/- / IL-6 (ng/ml), ATP Challenge, WT: ip ATP, peritoneal lavage; for IL-6 (ng/ml), ATP Challenge, WT: LPS-primed wild-type mice
# Description: (§1) ATP-Induced IL-1β Posttranslational Processing In Vivo Groups of mice were injected intraperitoneally (ip) with 1 μg of LPS. Two hours after this LPS injection, mice were injected ip with either 30 mM ATP (adjusted to pH 7) or PBS. Mice were sacrificed 30 minutes or 120 minutes after the ATP or PBS injection and peritoneal cavities were lavaged, each with 3 ml of RPMI (5% FCS). Samples of peritoneal lavages were spun down, supernatants were collected and tested for the presence of IL-1β and IL-6 using ELISAs (Amersham Life Sciences, Arlington Heights, Va. and Endogen, Woburn, Mass., respectively).
# As noted earlier, IL-1 signaling often leads to the production of other cytokines such as IL-6 (Allen et al. (2000) J. Exp. Med. 191:859-869). […] Two hours later an injection of ATP (or PBS) was administered to promote IL-1 posttranslational processing and the mice were incubated for an additional 4 hours. Peritoneal lavages were collected at several times during the course of the experiment and analyzed for IL-6 by ELISA. […] Mice that received an initial priming injection of LPS followed by PBS yielded levels of IL-6 at 1 and 2 hours (4 to 5 ng/ml) that were elevated above those recovered from mice injected with the combination of phosphate buffered saline and ATP (FIG. 8). By 4 hours, however, IL-6 levels recovered from the LPS-PBS treated animals returned to baseline (FIG. 9).
# IL-1β = experiment: ATP-induced IL-1β posttranslational processing in vivo (peritoneal lavage ELISA); design: species or system mouse
# Description: as §1
SMILES,release of lactate dehydrogenase (LDH) ([1]; P2×7R-/- macrophages),release of lactate dehydrogenase (LDH) ([1]; wild-type macrophages),extracellular 17 kDa IL-1β as percentage of total radiolabeled IL-1β recovered ([2]; P2×7R-/- macrophages),extracellular 17 kDa IL-1β as percentage of total radiolabeled IL-1β recovered ([2]; wild-type macrophages) [%],ATP concentrations at which receptors activate (other P2× receptors) [µM],levels of ATP required to achieve activation (P2×7R) [mM],YoPro Yellow fluorescence intensity ([3]; P2×7R-/- macrophages),YoPro Yellow fluorescence intensity ([3]; wild-type macrophages),"IL-6 (ng/ml), ATP Challenge, P2×7R-/- (IL-6; 30 min post challenge) [ng/mL]","IL-6 (ng/ml), ATP Challenge, P2×7R-/- (IL-6; 120 min post challenge) [ng/mL]","IL-6 (ng/ml), ATP Challenge, WT (IL-6; 30 min post challenge) [ng/mL]","IL-6 (ng/ml), ATP Challenge, WT (IL-6; 120 min post challenge)","peak lavage fluid IL-6 (IL-6; wild-type mice, LPS at time 0, ATP at 2 hours, 4 hour time point) [ng/mL]","lavage fluid IL-6 (IL-6; wild-type mice, priming injection of PBS followed 2 hours later by ATP)","IL-1β in peritoneal lavage after ATP challenge (IL-1β; LPS-primed mice heterozygous (+/-) for the P2×7R disruption, 30 min)","IL-1 (ng/ml), ATP Challenge, WT (IL-1β; LPS-primed wild-type mice, ip ATP, 120 min post challenge, peritoneal lavage)"
CO[C@@H]1C[C@@H](C[C@H]2CC[C@H](C)[C@H]([C@@H](C)C(=O)O)O2)O[C@]2(O[C@](C)([C@H]3CC[C@@](C)([C@@H]4O[C@@H]([C@H]5O[C@@](O)(CO)[C@H](C)C[C@@H]5C)C[C@@H]4C)O3)C[C@H]2C)[C@@H]1C [nigericin],comparable quantities of LDH,comparable quantities of LDH,74%,66,,,,,,,,,,,,
Nc1ncnc2c1ncn2[C@@H]1O[C@H](COP(=O)(O)OP(=O)(O)OP(=O)(O)O)[C@@H](O)[C@H]1O [ATP],,enhanced release,did not release any radiolabeled IL-1β,64,≤ 100,> 1,did not result in time-dependent increase in fluorescence intensity,time dependent increase in fluorescence intensity,9 ± 1,6,8.2 ± 1.7,17 ng/mL and 16.8 ± 2.3 ng/mL,> 25,did not contain significant levels of IL-6 at any time,A similar pattern,0.34 ng/mL and 0.33 ± 0.08 ng/mL

# Source: patent US6677501B2, “P2X7 receptor-deficient mice and uses thereof” (Pfizer, Inc., priority 2000, dated 2004)
